Data taken from patent publication US6979686B1, “Substituted pyrazoles as p38 kinase inhibitors” (Pharmacia Corporation, priority 2001, dated 2005).
Where two headings read alike, the source gives them in different places. Blank lines part the entries; values can stand above or below the compound they belong to.

What was measured:
human p38 kinase alpha = target: T1, human p38 kinase alpha (Homo sapiens, UniProt Q16539); test: p38 kinase in vitro assay, phosphorylation of biotinylated PHAS-I with 32P-ATP; type: biochemical; conditions: for IC50: read-out: P38 alpha kinase IC50; for inhibition at 1 µM: read-out: P38 alpha kinase % inhib @ conc.
T1 construct: GST (N, cleaved yes); made in house; host or cells: E. coli DH10B

[1] = system: TNF-α, U937 human histiocytic lymphoma cell line; test: LPS stimulation of TNF production by U937 cells; type: cell-based; conditions: for inhibition at 1 µM: U-937, @ 1.0 uM, read-out: U937 Cell % inhib @ conc.
Protocol: Maintenance and Differentiation of the U937 Human Histiocytic Lymphoma Cell Line:
Fifty million cells in 100 ml media were induced to terminal monocytic differentiation by 24 hour incubation with 20 ng/ml phorbol 12-myristate 13-acetate (Sigma). The cells were washed by centrifugation (200×g for 5 min) and resuspended in 100 ml fresh medium. After 24-48 hours, the cells were harvested, centrifuged, and resuspended in culture medium at 2 million cells/ml.
LPS Stimulation of TNF Production by U937 Cells:
Compounds were prepared as 10 mM stock solutions in DMSO and diluted in culture medium to yield a final DMSO concentration of 0.1% in the cell assay. LPS (E coli, 100 ng/ml final concentration) was then added at a volume of 0.02 ml. After 4 hour incubation at 37° C., the amount of TNF-α released in the culture medium was quantitated by ELISA. Inhibitory potency is expressed as IC50 (μM).
In vitro whole cell assay for measuring the ability of the compounds to inhibit TNF production in human U937 cells stimulated with LPS are shown in the column identified as: • “U937 Cell IC50, uM or % inhib @ conc., (uM)”

[2] = in vitro P38-alpha kinase inhibition
[3] = @ 1.0 uM, TNF production in human U937 cells stimulated with LPS
[4] = @ 10.0 uM, TNF production, LPS-stimulated U937 cells
[5] = Homo sapiens, TNF production, LPS-stimulated U937 cells
[6] = Homo sapiens, TNF production, U937 cells stimulated with LPS
[7] = @ 10.0 uM, TNF production, U937 cells stimulated with LPS
[8] = Homo sapiens, U-937, TNF production, human U937 cells stimulated with LPS, read-out: U937 Cell IC50
[9] = @ 1.0 uM, TNF production, U937 cells stimulated with LPS

T1 sequence (Q16539 whole entry): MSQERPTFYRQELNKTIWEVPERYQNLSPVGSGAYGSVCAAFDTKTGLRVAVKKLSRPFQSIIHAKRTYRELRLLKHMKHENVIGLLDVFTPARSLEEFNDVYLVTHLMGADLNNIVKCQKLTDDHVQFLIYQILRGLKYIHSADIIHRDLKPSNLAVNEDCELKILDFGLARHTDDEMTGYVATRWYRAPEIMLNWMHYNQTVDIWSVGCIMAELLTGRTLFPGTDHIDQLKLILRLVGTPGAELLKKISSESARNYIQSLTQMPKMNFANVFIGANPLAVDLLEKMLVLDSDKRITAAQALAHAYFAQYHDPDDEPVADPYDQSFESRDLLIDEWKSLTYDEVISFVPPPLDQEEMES

- IC50 (human p38 kinase alpha; [2]): 5420 nM
Compound: CC(NC(=O)c1cc(Cl)cc(Cl)c1)c1[nH]nc(-c2ccc(F)cc2)c1-c1ccncc1 (stereo not drawn) [Example B-0675]
- U937 Cell % inhib @ conc. (uM) [1, 3]: 3.0% @

- P38 alpha kinase % inhib @ conc. (human p38 kinase alpha; @ 10.0 uM): 65.0% @
Compound: Cc1c(-c2ccncc2)c(-c2ccc(F)cc2)nn1CC(=O)NC(C)Cc1c[nH]c2ccccc12 (stereo not drawn) [Example B-2328]
- U937 Cell % inhib @ conc. [1, 4]: 28.0% @

- IC50 (human p38 kinase alpha; [2]): 70 nM
- IC50 ([1]; Homo sapiens, U-937, TNF production in human U937 cells stimulated with LPS, read-out: U937 Cell IC50): > 1 µM
Compound: COc1ccc(S(=O)(=O)NC(Cc2ccccc2)c2[nH]nc(-c3ccc(F)cc3)c2-c2ccncc2)cc1OC (stereo not drawn) [Example B-0722]

- IC50 (human p38 kinase alpha; in vitro P38-alpha kinase): 3230 nM
Compound: O=S(=O)(c1cccc(Cl)c1)N1CCC(c2[nH]nc(-c3ccc(F)cc3)c2-c2ccncc2)CC1 [Example B-1465]
- inhibition at 1 µM [1, 5]: 31%

- IC50 (human p38 kinase alpha; [2]): < 100 nM
Compound: O=S(=O)(NCCc1[nH]nc(-c2ccc(F)cc2)c1-c1ccncc1)c1cccc(Cl)c1Cl [Example B-1073]
- inhibition at 1 µM [1, 6]: 21%

- P38 alpha kinase IC50, uM or % inhib @ conc. (uM): % inhib (human p38 kinase alpha; @ 10.0 uM): 32.0% @
- U937 Cell IC50, uM or % inhib @ conc. (uM): % inhib [1, 7]: 28.0% @
Compound: Cc1c(-c2ccncc2)c(-c2ccc(F)cc2)nn1CC(=O)N(C)CCN1CCOCC1 [Example B-2395]

- P38 alpha kinase IC50, uM or % inhib @ conc. (uM): % inhib (human p38 kinase alpha; @ 10.0 uM): 39.0% @
- U937 Cell IC50, uM or % inhib @ conc. (uM): % inhib [1, 7]: 10.0% @
Compound: COc1ccc2[nH]c3c(c2c1)CCN(C(=O)Cn1nc(-c2ccc(F)cc2)c(-c2ccncc2)c1C)C3 [Example B-2408]

- P38 alpha kinase % inhib @ conc. (uM) (human p38 kinase alpha; @ 1.0 uM): 67.0% @
Compound: CC(C)=CC(=O)NCCc1[nH]nc(-c2ccc(F)cc2)c1-c1ccncc1 [Example B-0998]
- U937 Cell % inhib @ conc. (uM) [1, 9]: 25.0% @

- P38 alpha kinase IC50, uM or % inhib @ conc. (uM): % inhib (human p38 kinase alpha; @ 100.0 uM): 47% @
- IC50 ([1]; TNF production, U937 cells stimulated with LPS, read-out: U937 Cell IC50, uM or % inhib @ conc. (uM): IC50): > 10 µM
Compound: Cc1cc(Cl)ccc1OCC1SCCN1C(=O)Cn1nc(-c2ccc(F)cc2)c(-c2ccncc2)c1C (stereo not drawn) [Example B-2405]

- IC50 (human p38 kinase alpha; in vitro P38-alpha kinase): 120 nM
Compound: O=C(NCCCc1[nH]nc(-c2ccc(F)cc2)c1-c1ccncc1)NCc1cccnc1 [Example B-1310]
- inhibition at 1 µM [1, 5]: 11%

- IC50 (human p38 kinase alpha; in vitro P38-alpha kinase): 300 nM
Compound: COc1ccc(OC)c(S(=O)(=O)N2CCC(c3[nH]nc(-c4ccc(F)cc4)c3-c3ccncc3)CC2)c1 [Example B-1444]
- inhibition at 1 µM [1, 5]: 24%

- IC50 (human p38 kinase alpha; [2]): 380 nM
Compound: CN(C)c1cccc2c(S(=O)(=O)NCCc3[nH]nc(-c4ccc(F)cc4)c3-c3ccncc3)cccc12 [Example B-1072]
- inhibition at 1 µM [1, 6]: 28%

- P38 alpha kinase % inhib @ conc. (human p38 kinase alpha; @ 10.0 uM): 44.0% @
Compound: COC(=O)C(C)NC(=O)Cn1nc(-c2ccc(F)cc2)c(-c2ccncc2)c1C (stereo not drawn) [Example B-2363]
- U937 Cell % inhib @ conc. [1, 4]: 1.0% @

- IC50 (human p38 kinase alpha; [2]): 670 nM
- IC50 [1, 8]: > 1 µM
Compound: C=CCOC(=O)NC(Cc1ccccc1)c1[nH]nc(-c2ccc(F)cc2)c1-c1ccncc1 (stereo not drawn) [Example B-0801]

- IC50 (human p38 kinase alpha; in vitro P38-alpha kinase): 920 nM
Compound: O=C(c1ccccc1Cl)N1CCC(c2[nH]nc(-c3ccc(F)cc3)c2-c2ccncc2)CC1 [Example B-1397]
- inhibition at 1 µM [1, 5]: 85%

Second part, the compound before the results:

Compound: CC(NS(=O)(=O)c1cccc2cnccc12)c1[nH]nc(-c2ccc(F)cc2)c1-c1ccncc1 (stereo not drawn) [Example B-0490]
- IC50 (human p38 kinase alpha; [2]): 910 nM
- inhibition at 1 µM ([1]; Homo sapiens, TNF production in human U937 cells stimulated with LPS): 74%

Compound: C[C@@H](NC(=O)[C@H]1CCCN1)c1[nH]nc(-c2ccc(F)cc2)c1-c1ccncc1 [Example B-0428]
- IC50 (human p38 kinase alpha; [2]): 990 nM
- U937 Cell % inhib @ conc. (uM) [1, 3]: 27.0% @

Compound: CC(C)=CC(=O)NCc1[nH]nc(-c2ccc(F)cc2)c1-c1ccncc1 [Example B-0027]
- inhibition at 1 µM (human p38 kinase alpha; @ 1.0 uM): 94%
- IC50 [1, 8]: 11 µM

Compound: O=C(NCc1[nH]nc(-c2ccc(F)cc2)c1-c1ccncc1)c1ccccc1I [Example B-0005]
- inhibition at 1 µM (human p38 kinase alpha; @ 1.0 uM): 95%
- IC50 [1, 8]: 2.97 µM

Compound: COc1ccc(CC(=O)N[C@H](C)c2[nH]nc(-c3ccc(F)cc3)c2-c2ccncc2)cc1OC [Example B-0371]
- inhibition at 1 µM [1, 6]: 28%

Compound: O=C(NC(Cc1ccccc1)c1[nH]nc(-c2ccc(F)cc2)c1-c1ccncc1)c1ccccn1 (stereo not drawn) [Example B-0855]
- U937 Cell % inhib @ conc. (uM) [1, 9]: 8.0% @

Compound: Cc1ccc(S(=O)(=O)NC(Cc2ccccc2)C(=O)NCCCc2[nH]nc(-c3ccc(F)cc3)c2-c2ccncc2)cc1 (stereo not drawn) [Example B-1188]
- U937 Cell % inhib @ conc. (uM) [1, 9]: 36.0% @

Compound: C[C@@H](NS(=O)(=O)c1ccc2ccccc2c1)c1[nH]nc(-c2ccc(F)cc2)c1-c1ccncc1 [Example B-0475]
- U937 Cell % inhib @ conc. (uM) [1, 3]: 74.0% @

Compound: C[C@@H](NC(=O)N[C@H](C)c1[nH]nc(-c2ccc(F)cc2)c1-c1ccncc1)c1ccccc1 [Example B-0417]
- U937 Cell % inhib @ conc. (uM) [1, 3]: 28.0% @

Compound: O=C(NCc1[nH]nc(-c2ccc(F)cc2)c1-c1ccncc1)c1cccs1 [Example B-0303]
- U937 Cell % inhib @ conc. [1, 9]: 10.0% @

Compound: Cc1cccc(C(=O)NCc2[nH]nc(-c3ccc(F)cc3)c2-c2ccncc2)c1 [Example B-0067]
- U937 Cell % inhib @ conc. [1, 9]: 1.0% @
